For data set [1] the following is noted: Crystal; visual observation.
Data set [2] in a line: Molar enthalpy of transition or fusion. Conditions: Crystal; DSC.

The structures appear in SMILES notation. Numbers after ± are expanded uncertainties.

Regarding `Oc1cccc(O)c1` [1,3-benzenediol], the Normal melting temperature in data set [1] came out at 110.50 ± 1.1 °C. Further, the “Molar enthalpy of transition or fusion” value in data set [2] was 5.31 ± 0.158 kcal/mol.
Consider `Ic1ccc(I)cc1` [1,4-diiodobenzene], for which, in data set [1], the Normal melting temperature was found to be 130.00 ± 1.1 °C. The “Molar enthalpy of transition or fusion” value in data set [2] was found to be 5.77 ± 0.17 kcal/mol.

The values are drawn from the NIST ThermoML archive (doi:10.1016/j.tca.2009.10.010).
